Legend:
[1] = Storage stability; type: physicochemical
[2] = Decomposition rate studies (half-life of azo and peroxide portions); type: physicochemical
Experimental: The temperatures at which the polymerizations are carried out will depend upon the polymerization technique; the monomer, solvent or suspending medium; and the physical properties desired in the polymer; but most of all upon the azo-peroxide initiator and the method chosen to decompose the azo or peroxide portion of the initiator. Activation of the peroxide portion by amines, reducing agents, transition metal carboxylates, etc., can be carried out from below -20° C up to its normal decomposition temperature. The same is true for activation of the peroxide or azo portions by irradiation. Irradiation sources can be ultra-violet radiation, and in the presence of photosensitizers (e.g. certain azo dyes) visible light can also be used. The temperatures used for the thermal decompositions of the azo or peroxide portions will depend upon the thermal stability (half-life) of the azo or peroxide grouping in the molecule. These half-lives can be determined quantitatively for each azo-peroxide compound by conventional methods i.e. gas evolution, and iodometric, ultra-violet, or gas chromatographic analytical techniques to determine the rate of disappearance of each portion (azo or peroxide) at any given temperature. (Such half-life data were determined for the compounds made in Examples 1 to 5.) […]
Its infrared spectrum was in agreement with the above structure showing both peresters and acid chloride carbonyl absorption bands. […] Apparently, the perester undergoes induced decomposition at this relatively high temperature.

## CC1(C#N)CCC(=O)OOC(=O)CCC(C)(C#N)N=N1 (stereo not shown) [Example 1, 6,9-Dimethyl-6,9-dicyano-Δ^7,1,2-dioxa-7,8-diazacyclododecan-3,12-dione]
[1]
  storage stability: more than one month
[2]; 70° C, o-dichlorobenzene
  t1/2 of azo portion: ≈ 236 minutes
  t1/2 of diacyl peroxide portion: ≈ 99 minutes

## CC(C#N)(CCC(=O)OOC(C)(C)C)N=NC(C)(C#N)CCC(=O)OOC(C)(C)C (stereo not drawn) [Example 4, Di-t-butylperoxy Ester of cis-4,4'-Azobis(4-cyanovalericacid)]
[1]; two days at 21° C
  change of infrared spectrum on standing (room temperature stability): not changed
[2]; 80° C, trichlorobenzene
  t1/2 of azo portion: ≈ 92 minutes
  t1/2 of perester portion: ≈ 319 minutes

## CC(C#N)(CCC(=O)Cl)N=NC(C)(C#N)CCC(=O)OOC(C)(C)C (stereo not drawn) [Example 5, mono-t-Butylperoxy Ester of the Diacid Chloride of trans-4,4'-Azobis(4-cyanovaleric acid)]
[2]; 90° C, dioctyl phthalate
  decomposition order of azo and perester linkages: decompose simultaneously
